Earlier results, collected in the PKSmart pharmacokinetics tables (Seal et al. 2025).

What was measured:
[1] = Lombardo et al. 2013, J Clin Pharmacol 53:178, doi 10.1177/0091270012440282; details: for Vd / clearance: in vivo, iv; for fraction unbound: plasma
[2] = Lombardo, Berellini, Obach 2018, Drug Metab Dispos 46:1466, doi 10.1124/dmd.118.082966; details: human; for MRT / Vd / clearance / half-life: in vivo, iv; for fraction unbound: plasma

## CCN(CC)CCNC(=O)c1ccc(NS(C)(=O)=O)cc1
[1]; dog
  Vd: 1.4 L/kg
  clearance: 9 mL/min/kg
[1]; rat
  Vd: 2.08 L/kg
  clearance: 25.6 mL/min/kg
[2]
  MRT: 3.7 h
  Vd: 0.82 L/kg
  clearance: 3.7 mL/min/kg
  half-life: 3.8 h

## COC(=O)C1[C@@H](OC(=O)c2ccccc2)C[C@@H]2CC[C@H]1N2C (stereo not given in full)
[1]; dog
  Vd: 2.6 L/kg
  clearance: 48.7 mL/min/kg
  fraction unbound: 0.76
[1]; rat
  Vd: 16.4 L/kg
  clearance: 253 mL/min/kg
  fraction unbound: 0.78
[2]
  MRT: 1 h
  Vd: 2 L/kg
  clearance: 32 mL/min/kg
  half-life: 0.76 h
  fraction unbound: 0.12

## Nc1ccc(S(=O)(=O)Nc2ncccn2)cc1
[1]; dog
  fraction unbound: 0.78
[1]; monkey
  Vd: 0.5 L/kg
  clearance: 0.64 mL/min/kg
  fraction unbound: 0.463
[1]; rat
  Vd: 0.34 L/kg
  clearance: 1.1 mL/min/kg
  fraction unbound: 0.86
[2]
  MRT: 8.8 h
  Vd: 0.29 L/kg
  clearance: 0.55 mL/min/kg
  half-life: 7 h

## COC(=O)CCc1ccc(OCC(O)CNC(C)C)cc1 (stereo not given)
[1]; dog
  Vd: 3.4 L/kg
  clearance: 1500 mL/min/kg
  fraction unbound: 0.62
[1]; rat
  fraction unbound: 0.71
[2]
  MRT: 0.07 h
  Vd: 1.2 L/kg
  clearance: 290 mL/min/kg
  half-life: 0.15 h
  fraction unbound: 0.59

## CCN(C(C)=O)c1cccc(-c2ccnc3c(C#N)cnn23)c1
[1]; rat
  Vd: 1.72 L/kg
  clearance: 20.7 mL/min/kg
[2]
  MRT: 1.4 h
  Vd: 1.3 L/kg
  fraction unbound: 0.4

## O=C1c2ccccc2S(=O)(=O)N1CCCCNC[C@H]1CCc2ccccc2O1
[1]; rat
  Vd: 1.48 L/kg
  clearance: 38.3 mL/min/kg
  fraction unbound: 0.054
[2]
  MRT: 1.6 h
  Vd: 0.21 L/kg
  clearance: 2.2 mL/min/kg
  half-life: 1.2 h

## NC12CC3CC(CC(C3)C1)C2
[1]; rat
  Vd: 6.4 L/kg
  clearance: 19 mL/min/kg
  fraction unbound: 0.52
[2]
  MRT: 23 h
  Vd: 6.6 L/kg
  clearance: 4.8 mL/min/kg
  half-life: 16 h

## CSc1ccc(C(=O)c2[nH]c(=O)[nH]c2C)cc1
[1]; dog
  Vd: 2.1 L/kg
  clearance: 26 mL/min/kg
[2]
  MRT: 1.33 h
  Vd: 1.48 L/kg
  clearance: 19.1 mL/min/kg
  half-life: 1.94 h
  fraction unbound: 0.3

## COCC(=O)O[C@]1(CCN(C)CCCc2nc3ccccc3[nH]2)CCc2cc(F)ccc2[C@@H]1C(C)C
[1]; dog
  Vd: 9.7 L/kg
  clearance: 18.4 mL/min/kg
[1]; rat
  clearance: 94 mL/min/kg
[2]
  MRT: 13 h
  Vd: 3.1 L/kg
  clearance: 4 mL/min/kg
  half-life: 13 h
  fraction unbound: 0.005

## O=NN(CCCl)C(=O)NCCCl
[1]; dog
  Vd: 1.1 L/kg
  clearance: 17.8 mL/min/kg
[1]; monkey
  Vd: 0.9 L/kg
  clearance: 21 mL/min/kg
[2]
  MRT: 0.26 h
  Vd: 1.2 L/kg
  clearance: 78 mL/min/kg
  half-life: 0.37 h
  fraction unbound: 0.23

## CON=C(C(=O)NC1C(=O)N2C(C(=O)[O-])=C(C[n+]3ccc(N)n3CCO)CS[C@H]12)c1csc(N)n1 (stereo not given in full)
[1]; dog
  Vd: 0.39 L/kg
  clearance: 3.5 mL/min/kg
[1]; monkey
  Vd: 0.28 L/kg
  clearance: 1.9 mL/min/kg
[1]; rat
  Vd: 0.2 L/kg
  clearance: 9.6 mL/min/kg
[2]
  MRT: 2.78 h
  Vd: 0.3 L/kg
  clearance: 1.77 mL/min/kg
  half-life: 2.9 h

## COc1cc2c3cc1Oc1cc(ccc1O)C[C@@H]1c4c(cc(OC)c([O-])c4Oc4ccc(cc4)C[C@@H]3N(C)CC2)CC[N+]1(C)C
[1]; dog
  Vd: 0.37 L/kg
  clearance: 3.73 mL/min/kg
[2]
  MRT: 2.2 h
  Vd: 0.45 L/kg
  clearance: 3.4 mL/min/kg
  half-life: 2 h
  fraction unbound: 0.58

## CCC(C)C(=O)O[C@H]1C[C@H](O)C=C2C=C[C@H](C)[C@H](CC[C@@H](O)C[C@@H](O)CC(=O)O)[C@H]21 (stereo not given in full)
[1]; rat
  Vd: 0.19 L/kg
  clearance: 36 mL/min/kg
  fraction unbound: 0.33
[2]
  Vd: 0.46 L/kg
  clearance: 14 mL/min/kg
  half-life: 0.78 h

## Cc1nnc2n1-c1ccc(Cl)cc1C(c1ccccc1)=NC2
[1]; rat
  Vd: 2.7 L/kg
  clearance: 133 mL/min/kg
  fraction unbound: 0.35
[2]
  MRT: 18 h
  Vd: 0.8 L/kg
  clearance: 0.74 mL/min/kg
  half-life: 12 h

## C=c1cc(C)[nH]c1=Cc1c(O)[nH]c2ccccc12
[1]; dog
  Vd: 1.4 L/kg
  clearance: 52 mL/min/kg
[1]; monkey
  Vd: 1.63 L/kg
  clearance: 27.7 mL/min/kg
[1]; rat
  Vd: 1.6 L/kg
  clearance: 45 mL/min/kg
  fraction unbound: 0.007
[2]
  MRT: 1.17 h
  Vd: 0.98 L/kg
  clearance: 14 mL/min/kg
  half-life: 0.83 h
  fraction unbound: 0.008

## CCN1CCN(C(=O)NC(C(=O)NC2C(=O)N3C(C(=O)O)C(C)(C)S[C@H]23)c2ccccc2)C(=O)C1=O (stereo not given in full)
[1]; dog
  Vd: 0.24 L/kg
  clearance: 6.6 mL/min/kg
  fraction unbound: 0.84
[1]; monkey
  Vd: 0.26 L/kg
  clearance: 7.2 mL/min/kg
  fraction unbound: 0.95
[1]; rat
  Vd: 0.39 L/kg
  clearance: 17.7 mL/min/kg
  fraction unbound: 0.61
[2]
  MRT: 1.1 h
  Vd: 0.27 L/kg
  half-life: 0.96 h

## Cc1nc2n(c(=O)c1CCN1CCC(c3noc4cc(F)ccc34)CC1)CCCC2
[1]; dog
  fraction unbound: 0.083
[1]; monkey
  fraction unbound: 0.084
[1]; rat
  Vd: 3.6 L/kg
  clearance: 71.7 mL/min/kg
  fraction unbound: 0.118
[2]
  half-life: 3.2 h

## CC1(C)S[C@@H]2C(NC(=O)C(NC(=O)N3CCN(S(C)(=O)=O)C3=O)c3ccccc3)C(=O)N2C1C(=O)O (stereo not given in full)
[1]; rat
  Vd: 0.3 L/kg
  clearance: 50 mL/min/kg
  fraction unbound: 0.65
[2]
  MRT: 0.71 h
  Vd: 0.09 L/kg
  clearance: 2.1 mL/min/kg
  half-life: 1.2 h
  fraction unbound: 0.7

## CON=C(C(=O)NC1C(=O)N2C(C(=O)[O-])=C(C[n+]3cccc4c3CCC4)CS[C@H]12)c1csc(N)n1 (stereo not given in full)
[1]; dog
  Vd: 0.22 L/kg
  clearance: 3.2 mL/min/kg
  fraction unbound: 0.542
[1]; monkey
  Vd: 0.27 L/kg
  clearance: 2.4 mL/min/kg
  fraction unbound: 0.446
[1]; rat
  Vd: 0.3 L/kg
  clearance: 9.5 mL/min/kg
[2]
  MRT: 2.1 h
  Vd: 0.24 L/kg
  clearance: 1.9 mL/min/kg
  half-life: 1.7 h
  fraction unbound: 0.9

## CCCC1O[C@@H]2C[C@H]3[C@@H]4CC=C5CC(=O)C=C[C@]5(C)[C@H]4[C@@H](O)C[C@]3(C)[C@]2(C(=O)CO)O1 (stereo not given in full)
[1]; rat
  Vd: 29.2 L/kg
  clearance: 72 mL/min/kg
  fraction unbound: 0.039
[2]
  MRT: 3.2 h
  Vd: 3.9 L/kg
  clearance: 20 mL/min/kg
  half-life: 2.8 h

## CN(c1nc2ccccc2s1)C1CCN(C[C@H](O)COc2ccc(F)c(F)c2)CC1
[1]; rat
  fraction unbound: 0.008
[2]
  fraction unbound: 0.003

## CN1C(=O)NC(=O)C(C)(C2=CCCCC2)C1=O (stereo not given)
[1]; rat
  Vd: 2.5 L/kg
  clearance: 40.6 mL/min/kg
[2]
  MRT: 5.4 h
  Vd: 1.1 L/kg
  clearance: 3.4 mL/min/kg
  half-life: 4.9 h
  fraction unbound: 0.53

## CN1CCN(C2=Nc3cc(Cl)ccc3Nc3ccccc32)CC1
[1]; rat
  Vd: 8.68 L/kg
[2]
  MRT: 11 h
  Vd: 1.6 L/kg
  half-life: 10 h

## Cc1cn([C@H]2C=C[C@@H](CO)O2)c(=O)[nH]c1=O
[1]; dog
  fraction unbound: 0.9
[1]; monkey
  Vd: 0.8 L/kg
  clearance: 9.4 mL/min/kg
  fraction unbound: 0.9
[1]; rat
  Vd: 1.09 L/kg
  clearance: 20.2 mL/min/kg
  fraction unbound: 0.9
[2]
  MRT: 1.4 h
  Vd: 0.67 L/kg
  clearance: 8.2 mL/min/kg
  half-life: 1.4 h
  fraction unbound: 1

## CC(C)(C)NCC(O)c1ccc(O)c(CO)c1 (stereo not given)
[1]; dog
  Vd: 3.9 L/kg
  fraction unbound: 0.05
[1]; rat
  Vd: 30 L/kg
  fraction unbound: 0.05
[2]
  MRT: 4.1 h
  Vd: 1.9 L/kg

## COc1cc2nc(N3CCN(C(=O)C4COc5ccccc5O4)CC3)nc(N)c2cc1OC (stereo not given)
[1]; dog
  Vd: 5 L/kg
  clearance: 13 mL/min/kg
  fraction unbound: 0.0653
[1]; rat
  Vd: 3 L/kg
  fraction unbound: 0.03
[2]
  MRT: 14 h
  Vd: 1.3 L/kg
  half-life: 10 h

## COc1cc(NS(C)(=O)=O)ccc1Nc1c2ccccc2nc2ccccc12
[1]; dog
  Vd: 2.8 L/kg
  clearance: 16 mL/min/kg
  fraction unbound: 0.081
[1]; rat
  Vd: 4.5 L/kg
  clearance: 83 mL/min/kg
  fraction unbound: 0.1
[2]
  MRT: 6.2 h
  Vd: 1.6 L/kg
  clearance: 4.3 mL/min/kg
  half-life: 4.7 h
  fraction unbound: 0.029
